Measured values reported in article PMC6934184, “Selective DNA-PKcs inhibition extends the therapeutic index of localized radiotherapy and chemotherapy” (The Journal of Clinical Investigation, 2019).

Target: T1, AURKC (Aurora C) (Homo sapiens, UniProt Q9UQB9)
T1 construct: purchased Thermo Fisher Scientific (Life Technologies) SelectScreen
Test: SelectScreen Z'LYTE
Type: biochemical
Outline: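 Compound tested in SelectScreen activity assays, Z'LYTE for CSF1R, CDK1/cyclin B and MAP2K6 and Adapta for CAMK1. ATP for CAMK1 was listed as 10, and Km app was used for CSF1R. Results are expressed in percent.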

T1 sequence (Q9UQB9 whole entry): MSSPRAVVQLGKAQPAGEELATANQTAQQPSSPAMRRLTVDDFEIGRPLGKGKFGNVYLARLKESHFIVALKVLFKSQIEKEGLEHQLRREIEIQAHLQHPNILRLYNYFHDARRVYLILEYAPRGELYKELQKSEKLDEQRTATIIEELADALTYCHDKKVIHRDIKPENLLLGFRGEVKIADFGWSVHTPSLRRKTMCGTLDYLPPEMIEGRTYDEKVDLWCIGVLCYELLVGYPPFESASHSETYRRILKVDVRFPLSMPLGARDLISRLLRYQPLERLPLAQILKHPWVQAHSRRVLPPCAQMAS

SMILES: CN(C(=O)CN1CCOCC1)c1ccc2sc3c(-c4cccc5c(=O)cc(N6CC7CCC(C6)O7)oc45)cccc3c2c1 [NU5455]
- inhibition at 1 µM: -5.4%
